Source: article PMC8509773, “3-Pyridinylidene Derivatives of Chemically Modified Lupane and Ursane Triterpenes as Promising Anticancer Agents by Targeting Apoptosis” (International Journal of Molecular Sciences, 2021)

How the values were obtained:
Test in all cases: NCI-60 SRB screening (one-dose and five-dose)
Type in all cases: cell-based, human
Details in all cases: 48 h
MDA-MB-435 = test system: MDA-MB-435
Procedure: (§1) The compounds were added at a single concentration and the cell cultures were incubated for 48 h. The end point determinations were made with a protein binding dye, sulforhodamine B (SRB). […] The percentage of growth was evaluated spectrophotometrically versus controls not treated with test agents after 48-h exposure and using SRB protein assay to estimate cell viability or growth. […] Furthermore, mean graph midpoints (MG_MID) were calculated for each of the parameters, giving an average activity parameter over all cell lines for the tested compound. For the MG_MID calculation, insensitive cell lines were included with the highest concentration tested.

TK-10 = test system: TK-10
Procedure: as §1

OVCAR-5 = test system: OVCAR-5
Procedure: as §1

K-562 = test system: K-562
Procedure: as §1

BT-549 = test system: BT-549
Procedure: as §1

CCRF-CEM = test system: CCRF-CEM
Procedure: as §1

DU-145 = test system: DU-145
Procedure: as §1

SN12C = test system: SN12C
Procedure: as §1

A549/ATCC = test system: A549/ATCC
Procedure: as §1

HOP-62 = test system: HOP-62
Procedure: as §1

NCI/ADR-RES = test system: NCI/ADR-RES
Procedure: as §1

SF-295 = test system: SF-295
Procedure: as §1

HL-60(TB) = test system: HL-60(TB)
Procedure: as §1

HCT-116 = test system: HCT-116
Procedure: as §1

NCI-H322M = test system: NCI-H322M
Procedure: as §1

HCC-2998 = test system: HCC-2998
Procedure: as §1

PC-3 = test system: PC-3
Procedure: as §1

ACHN = test system: ACHN
Procedure: as §1

OVCAR-4 = test system: OVCAR-4
Procedure: as §1

NCI-H460 = test system: NCI-H460
Procedure: as §1

SNB-19 = test system: SNB-19
Procedure: as §1

NCI-H522 = test system: NCI-H522
Procedure: as §1

MDA-MB-231/ATCC = test system: MDA-MB-231/ATCC
Procedure: as §1

NCI-H226 = test system: NCI-H226
Procedure: as §1

HCT-15 = test system: HCT-15
Procedure: as §1

HT29 = test system: HT29
Procedure: as §1

SW-620 = test system: SW-620
Procedure: as §1

SK-MEL-5 = test system: SK-MEL-5
Procedure: as §1

HS 578T = test system: HS 578T
Procedure: as §1

MALME-3M = test system: MALME-3M
Procedure: as §1

CAKI-1 = test system: CAKI-1
Procedure: as §1

MCF7 = test system: MCF7
Procedure: as §1

T-47D = test system: T-47D
Procedure: as §1

SF-268 = test system: SF-268
Procedure: as §1

KM-12 = test system: KM-12
Procedure: as §1

786-0 = test system: 786-0
Procedure: as §1

UACC-257 = test system: UACC-257
Procedure: as §1

SF-539 = test system: SF-539
Procedure: as §1

MDA-MB-468 = test system: MDA-MB-468
Procedure: as §1

SK-MEL-28 = test system: SK-MEL-28
Procedure: as §1

[1] = Homo sapiens, five dose 0.01–100 μM

`C[C@H]1[C@@H]2[C@H]3CC[C@@H]4[C@@]5(C)C/C(=C\c6cccnc6)C(=O)C(C)(C)[C@@H]5CC[C@@]4(C)[C@]3(C)CC[C@]23CO[C@@]1(C)[C@@H](C(=O)/C=C/c1cccnc1)C3` [Compound 6, 3-Oxo-2-(3-pyridinylidene)-21-[3-(2E-pyridinyl)-prop-2-en-1-one]-20β,28-epoxy-18α,19βH-ursane] was tested, and the GI50 (MDA-MB-435; Homo sapiens, MDA-MB-435, MDA-B-435, five dose 0.01–100 μM) was 1090 nM, the “Growth Percent” value (MDA-MB-435; MDA-MB-435, 10 μM) was −7.30% and the GI50 (TK-10; Homo sapiens, TK-10, five dose 0.01–100 μM) was 1830 nM. The “Growth Percent” value (TK-10; TK-10, 10 μM) was −14.49%, the GI50 (OVCAR-5; Homo sapiens, OVCAR-5, five dose 0.01–100 μM) was 1460 nM and the “Growth Percent” value (OVCAR-5; OVCAR-5, 10 μM) was −4.00%. The GI50 (K-562; Homo sapiens, K562, K-562, five dose 0.01–100 μM) was 30 nM, the “Growth Percent” value (K-562; K-562, 10 μM) was 6.51% and the “Growth Percent” value (BT-549; BT-549, 10 μM) was −20.09%. For the same molecule, the GI50 (BT-549; Homo sapiens, BT-549, five dose 0.01–100 μM) was 730 nM, the “Growth Percent” value (CCRF-CEM; 10 μM) was 17.92% and the GI50 (CCRF-CEM; [1]) was 170 nM. The “Growth Percent” value (DU-145; DU-145, 10 μM) was −28.80%, the GI50 (DU-145; Homo sapiens, DU-145, five dose 0.01–100 μM) was 930 nM and the “Growth Percent” value (SN12C; 10 μM) was −17.67%. The GI50 (SN12C; [1]) was 940 nM, the “Growth Percent” value (A549/ATCC; 10 μM) was −24.64% and the GI50 (A549/ATCC; [1]) was 1270 nM. The “Growth Percent” value (HOP-62; HOP-62, 10 μM) was −13.55%, the GI50 (HOP-62; Homo sapiens, HOP-62, five dose 0.01–100 μM) was 1560 nM and the “Growth Percent” value (NCI/ADR-RES; 10 μM) was 2.97%. The GI50 (NCI/ADR-RES; [1]) was 1700 nM, the GI50 (SF-295; Homo sapiens, SF-295, five dose 0.01–100 μM) was 1690 nM and the “Growth Percent” value (SF-295; SF-295, 10 μM) was 6.07%. The “Growth Percent” value (HL-60(TB); 10 μM) was 14.49%, the GI50 (HL-60(TB); [1]) was 560 nM and the “Growth Percent” value (HCT-116; HCT-116, 10 μM) was −45.63%. The GI50 (HCT-116; Homo sapiens, HCT-116, five dose 0.01–100 μM) was 230 nM, the “Growth Percent” value (NCI-H322M; 10 μM) was 46.39% and the GI50 (NCI-H322M; [1]) was 1820 nM. The “Growth Percent” value (HCC-2998; HCC-2998, 10 μM) was −67.18%, the GI50 (HCC-2998; Homo sapiens, HCC-2998, five dose 0.01–100 μM) was 890 nM and the GI50 (PC-3; Homo sapiens, PC-3, five dose 0.01–100 μM) was 260 nM. The “Growth Percent” value (PC-3; PC-3, 10 μM) was −3.56%, the “Growth Percent” value (ACHN; 10 μM) was −22.16% and the GI50 (ACHN; [1]) was 1410 nM. For the same molecule, the GI50 (OVCAR-4; Homo sapiens, OVCAR-4, five dose 0.01–100 μM) was 1490 nM, the “Growth Percent” value (OVCAR-4; OVCAR-4, 10 μM) was 18.62% and the GI50 (NCI-H460; Homo sapiens, NCI-H460, five dose 0.01–100 μM) was 890 nM. The “Growth Percent” value (NCI-H460; NCI-H460, 10 μM) was −45.33%, the GI50 (SNB-19; Homo sapiens, SNB-19, five dose 0.01–100 μM) was 850 nM and the “Growth Percent” value (SNB-19; SNB-19, 10 μM) was 2.48%. For the same molecule, the GI50 (NCI-H522; Homo sapiens, NCI-H522, five dose 0.01–100 μM) was 1360 nM, the “Growth Percent” value (NCI-H522; NCI-H522, 10 μM) was −34.35% and the “Growth Percent” value (MDA-MB-231/ATCC; 10 μM) was −30.71%. The GI50 (MDA-MB-231/ATCC; [1]) was 1030 nM, the GI50 (NCI-H226; Homo sapiens, NCI-H226, five dose 0.01–100 μM) was 1020 nM and the “Growth Percent” value (NCI-H226; NCI-H226, 10 μM) was −13.51%. The “Growth Percent” value (HCT-15; HCT-15, 10 μM) was −15.30%, the GI50 (HCT-15; Homo sapiens, HCT-15, five dose 0.01–100 μM) was 1110 nM and the “Growth Percent” value (HT29; HT29, 10 μM) was 26.36%. The GI50 (HT29; Homo sapiens, HT-29, HT29, five dose 0.01–100 μM) was 1500 nM, the GI50 (SW-620; Homo sapiens, SW-620, five dose 0.01–100 μM) was 980 nM and the “Growth Percent” value (SW-620; SW-620, 10 μM) was −26.39%. The GI50 (SK-MEL-5; Homo sapiens, SK-MEL-5, five dose 0.01–100 μM) was 820 nM, the “Growth Percent” value (SK-MEL-5; SK-MEL-5, 10 μM) was −82.25% and the “Growth Percent” value (HS 578T; 10 μM) was 11.24%. For the same molecule, the GI50 (HS 578T; [1]) was 1440 nM, the “Growth Percent” value (MALME-3M; 10 μM) was −33.54% and the GI50 (MALME-3M; [1]) was 800 nM. The “Growth Percent” value (CAKI-1; CAKI-1, 10 μM) was 9.32%, the GI50 (CAKI-1; Homo sapiens, CAKI-1, five dose 0.01–100 μM) was 1420 nM and the GI50 (MCF7; Homo sapiens, MCF7, five dose 0.01–100 μM) was 910 nM. The “Growth Percent” value (MCF7; MCF7, 10 μM) was 9.88%, the GI50 (T-47D; Homo sapiens, T47D, T -47D, five dose 0.01–100 μM) was 1980 nM and the “Growth Percent” value (T-47D; T-47D, 10 μM) was 24.61%. For the same molecule, the GI50 (SF-268; Homo sapiens, SF-268, five dose 0.01–100 μM) was 1310 nM, the “Growth Percent” value (SF-268; SF-268, 10 μM) was 7.10% and the GI50 (KM-12; Homo sapiens, KM12, KM-12, five dose 0.01–100 μM) was 910 nM. The “Growth Percent” value (KM-12; KM-12, 10 μM) was −55.61%, the “Growth Percent” value (786-0; 786-0, 10 μM) was −38.97% and the GI50 (786-0; Homo sapiens, 786-0, five dose 0.01–100 μM) was 920 nM. For the same molecule, the GI50 (UACC-257; Homo sapiens, UACC-257, five dose 0.01–100 μM) was 1670 nM, the “Growth Percent” value (UACC-257; UACC-257, 10 μM) was 13.16% and the GI50 (SF-539; Homo sapiens, SF-539, five dose 0.01–100 μM) was 1020 nM. For the same molecule, the “Growth Percent” value (SF-539; SF-539, 10 μM) was −32.36%, the GI50 (MDA-MB-468; Homo sapiens, MDA-MB-468, five dose 0.01–100 μM) was 860 nM and the “Growth Percent” value (MDA-MB-468; MDA-MB-468, 10 μM) was −5.83%. For the same molecule, the GI50 (SK-MEL-28; Homo sapiens, SK-MEL-28, five dose 0.01–100 μM) was 940 nM and the “Growth Percent” value (SK-MEL-28; SK-MEL-28, 10 μM) was −17.77%.
